Experimental data reported in patent US20110045101A1, “FUNGICIDAL SUBSTITUTED AZOLES” (E.I. Du Pont De Nemours and Company, priority 2009, published 2011).
Marks after values point to notes of the source that are not given here.

Tests used:
Type in all cases: in vivo
Details in all cases: 100 = 100% disease control
Botrytis cinerea = experiment: Test C: tomato Botrytis on tomato seedlings, sprayed the day before inoculation, visual disease rating
Description: General protocol for preparing test suspensions for Tests A-J: The test compounds were first dissolved in acetone in an amount equal to 3% of the final volume and then suspended at the desired concentration (in ppm) in acetone and purified water (50/50 mix) containing 250 ppm of the surfactant Trem® 014 (polyhydric alcohol esters). The resulting test suspensions were then used in tests A-J. Spraying a 200 ppm test suspension to the point of run-off on the test plants was the equivalent of a rate of 500 g/ha. […] The test suspension was sprayed to the point of run-off on tomato seedlings. […] A dash (-) indicates no test results. All results are for 200 ppm except where followed by “*”, which indicates 40 ppm.

Alternaria solani = experiment: Test D: tomato early blight, sprayed the day before inoculation, visual disease rating
Description: (§1) General protocol for preparing test suspensions for Tests A-J: The test compounds were first dissolved in acetone in an amount equal to 3% of the final volume and then suspended at the desired concentration (in ppm) in acetone and purified water (50/50 mix) containing 250 ppm of the surfactant Trem® 014 (polyhydric alcohol esters). The resulting test suspensions were then used in tests A-J. Spraying a 200 ppm test suspension to the point of run-off on the test plants was the equivalent of a rate of 500 g/ha. […] The test suspension was sprayed to the point of run-off on wheat seedlings. […] A dash (-) indicates no test results. All results are for 200 ppm except where followed by “*”, which indicates 40 ppm.

Septoria nodorum = experiment: Test F: wheat glume blotch on wheat seedlings, sprayed the day before inoculation, visual disease rating
Description: as §1

Septoria tritici = experiment: Test G: wheat leaf blotch on wheat seedlings, sprayed the day before inoculation, visual disease rating
Description: General protocol for preparing test suspensions for Tests A-J: The test compounds were first dissolved in acetone in an amount equal to 3% of the final volume and then suspended at the desired concentration (in ppm) in acetone and purified water (50/50 mix) containing 250 ppm of the surfactant Trem® 014 (polyhydric alcohol esters). The resulting test suspensions were then used in tests A-J. Spraying a 200 ppm test suspension to the point of run-off on the test plants was the equivalent of a rate of 500 g/ha. […] The test suspension was sprayed to the point of run-off on wheat seedlings. The following day the seedlings were inoculated with a spore suspension of Septoria tritici (the causal agent of wheat leaf blotch) and incubated in saturated atmosphere at 24° C. for 48 h, and then moved to a growth chamber at 20° C. for 19 days, after which time visual disease ratings were made. […] A dash (-) indicates no test results. All results are for 200 ppm except where followed by “*”, which indicates 40 ppm.

[1] = test system: Puccinia recondita f. sp. tritici; experiment: Test I: wheat leaf rust on wheat seedlings, sprayed the day before inoculation, visual disease rating
Description: as §1

[2] = test system: Erysiphe graminis f. sp. tritici; experiment: Test J: wheat powdery mildew on wheat seedlings, sprayed the day before inoculation, visual disease rating
Description: as §1

[3] = 200 ppm, 0 = no control relative to controls
[4] = 40 ppm (marked *), 0 = no control

Structure (SMILES)	Test C disease control rating (Botrytis cinerea; [3])	Test D disease control rating (Alternaria solani; [3])	Test F disease control rating (Septoria nodorum; [3])	Test G disease control rating (Septoria tritici; [3])	Test I disease control rating [1, 3]	Test J disease control rating [2, 3]	Test C disease control rating (Botrytis cinerea; 200 ppm, 0 = no control)	Test D disease control rating (Alternaria solani; 200 ppm, 0 = no control)	Test F disease control rating (Septoria nodorum; 200 ppm, 0 = no control)	Test G disease control rating (Septoria tritici; 200 ppm, 0 = no control)	Test I disease control rating ([1]; 200 ppm, 0 = no control)	Test J disease control rating ([2]; 200 ppm, 0 = no control)	other results
Cc1nn(C)c(-c2c(Cl)cccc2Cl)c1-c1cccc(F)c1 [compound 88]	75%	0%	0%	0%	68%	99%							
Cc1ccc(-n2c(C)nc(Cl)c2-c2c(F)cccc2F)cc1 [compound 82]	90%	100%	100%	91%	99%	100%							
COc1cc(F)c(-c2c(C)ncn2-c2ccccn2)c(F)c1 [compound 250]							99%	100%	0%	83%	99%	94%	
Fc1ccc(-c2c(Cl)nc(Cl)n2-c2ccc(Cl)c(F)c2)c(Cl)c1 [compound 229]							98%	99%	0%	98%	89%	91%	
COc1cc(F)c(-c2c(Cl)nc(C)n2-c2ccccc2)c(F)c1C [compound 439]	97%	100%	95%	94%	100%	100%							
Cc1nc(Cl)c(-c2c(F)ccc(F)c2F)n1-c1ccc(Cl)c(F)c1 [compound 157]							97%	99%	98%	97%	100%	100%	
Cc1nc(Cl)c(-c2c(F)cccc2F)n1-c1cccc(Cl)c1 [compound 236]							100%	100%	99%	96%	100%	100%	
Cc1ccc(-n2c(Br)nc(Cl)c2-c2c(F)ccc(F)c2F)cc1 [compound 141]	99%	100%	0%	91%	99%	100%							
COc1cc(F)c(-c2c(Cl)ncn2-c2cccc(F)c2)c(F)c1 [Compound 246, 4-chloro-5-(2,6-difluoro-4-methoxyphenyl)-1-(3-fluorophenyl)-1H-imidazole]													pest or weed control at 200 ppm (Botrytis cinerea; Botrytis cinerea, 120 h, 200 ppm, 0 = no control): 100%; pest or weed control at 200 ppm (Alternaria solani; Alternaria solani, 168 h, 200 ppm, 0 = no control): 100%; pest or weed control at 200 ppm (Septoria nodorum; Parastagonospora nodorum, 264 h, 200 ppm, 0 = no control): 95%; pest or weed control at 200 ppm (Septoria tritici; Zymoseptoria tritici, 504 h, 200 ppm, 0 = no control): 93%; pest or weed control at 200 ppm ([1]; Puccinia recondita, 168 h, 200 ppm, 0 = no control): 100%; pest or weed control at 200 ppm ([2]; Blumeria graminis, 168 h, 200 ppm, 0 = no control): 99%
Cc1ccc(F)c(-c2c(Cl)ncn2-c2ccc(Cl)cc2)c1F [compound 97]	94%	97%	0%	95%	91%	99%							
Cc1ccc(-n2c(Cl)nc(Cl)c2-c2c(F)ccc(F)c2F)cc1C [compound 226]							76%	67%	0%	88%	0%	95%	
COc1cc(Cl)cc(F)c1-c1c(Cl)ncn1-c1ccc(Cl)cc1 [compound 133]	0%	0%	0%	0%	0%	0%							
Cn1nc(Br)c(-c2c(F)cc(F)cc2F)c1-c1ccc(Cl)cc1 [compound 166]							96%	97%	40%	96%	91%	100%	
COc1cc(F)c(-c2c(Br)nc(OC)n2-c2ccc(Cl)cc2)c(F)c1 [compound 96]													Test C disease control rating (Botrytis cinerea; 40 ppm (marked *)): 98* %; Test D disease control rating (Alternaria solani; 40 ppm (marked *)): 100* %; Test F disease control rating (Septoria nodorum; 40 ppm (marked *)): 97* %; Test G disease control rating (Septoria tritici; 40 ppm (marked *)): 97* %; Test I disease control rating ([1]; 40 ppm (marked *)): 97* %; Test J disease control rating ([2]; 40 ppm (marked *)): 99* %
Cc1ccc(-n2cnc(Cl)c2-c2c(F)ccc(F)c2Cl)cc1 [compound 177]							88%	0%	0%	79%	99%	99%	
COc1ccc(-c2c(Cl)ncn2-c2ccc(Cl)cc2)c(F)c1 [compound 106]	100%	99%	64%	93%	99%	95%							
Fc1cc(-n2c(Br)nc(Cl)c2-c2c(F)cccc2F)ccc1Cl [compound 223]							99%	100%	60%	98%	99%	100%	
COc1cc(F)c(-c2c(-c3cccc(F)c3)c(C)nn2C)c(F)c1 [compound 78]	91%	100%	0%	92%	99%	100%							
Fc1cccc(C(F)(F)F)c1-c1c(Cl)nc(Br)n1-c1ccc(Cl)cc1 [compound 86]	0%	0%	0%	93%	27%	99%							
Fc1cc(-n2c(Br)nc(Cl)c2-c2c(F)cccc2Cl)ccc1Cl [compound 203]							87%	98%	87%	97%	100%	99%	
Cc1nc(Cl)c(-c2c(F)cccc2F)n1-c1ccc(Cl)c(F)c1 [compound 247]							100%	100%	100%	97%	100%	100%	
Cc1nc(Cl)c(-c2c(F)cccc2F)n1-c1cnc2ccccc2c1 [compound 199]							92%	100%	100%	96%	98%	95%	
Fc1ccc(F)c(-c2c(Cl)nc(Br)n2-c2ccc(Cl)cc2)c1Cl [compound 76]	37%	99%	60%	97%	99%	100%							
Cc1nc(Cl)c(-c2c(F)cc(F)cc2F)n1-c1ccc(F)cc1 [compound 167]													Test C disease control rating (Botrytis cinerea; [4]): 99* %; Test D disease control rating (Alternaria solani; [4]): 100* %; Test F disease control rating (Septoria nodorum; [4]): 0* %; Test G disease control rating (Septoria tritici; [4]): 95* %; Test I disease control rating [1, 4]: 0* %; Test J disease control rating [2, 4]: 98* %
